Key:
[1] = FRAP (Ferric reducing antioxidant power) assay
[2] = TEAC (Trolox equivalent antioxidant capacity) assay
[3] = Superoxide radical scavenging activity

Superoxide radical scavenging activity, EC50 [3] [µg/mL] | Structure (SMILES) | FRAP [1] [Mmol Fe2+/g] | TEAC [2] [mmol TE/g]
 | Cc1cc(C(C)(C)C)c(O)c(C(C)(C)C)c1 [BHT, hydroxytoluene butylate] | 0.416 ± 0.020 | 0.467 ± 0.005
60 ± 0 | O=C1O[C@H]([C@@H](O)CO)C(O)=C1O [Vitamin C, vitamin C] | 6.57 ± 1.00 | 7.23 ± 0.28
